Like-named read-outs stand apart in the source and are kept apart here.
Tests used:
American cockroach = test: Cross walk jar test on pre-treated surface; type: in vivo; details: for pesticidal activity against cockroaches, in words: in vivo
Description: In the test, a known amount of the test material was dissolved in a known volume of acetone and applied to small jars and all inner bottom surfaces were covered. The bottom surface of each jar is approximately 250 cm^2. One hour after the acetone had completely evaporated, five American cockroaches were introduced to each jar. Control jars were treated exactly as above but with the known amount of acetone only.
The results of the “cross walk” jar tests are in Table 8 in which the “4-blend” was dispersed as an aerosol and a dust in the jar.
In this test, the acetone solution of the test material was placed in the jar and the roach inserted into the jar after the acetone had evaporated.
Mortality was measured 24 hours after exposure.
The “4-blend” and the individual constituents of the “4-blend” were tested using 10 cockroaches for each “cross walk” treatment. In addition, pyrethrins were tested separately and mixed with the various components.
A concentration of 100 mg/jar was used for each individual alone. In the co-treatment experiment without pyrethrins, 20 mg/jar for each chemical was used. In the cotreatment experiment with pyrethrins, 20 mg/jar for the naturally occurring plant material was used. Pyrethrins was used at 2 mg/jar. […] It was noted above that the mortality is dependent upon concentration. […] Some synergism is found between pyrethrins and either α-terpineol or benzyl alcohol.

larvae = test: Feeding deterrence of carvacrol; type: in vivo; details: on doubling the concentration
From the text: FIG. 6 is a graph of the feeding deterrence of carvacrol vs. larvae.
The 5-blend can be considered as a relatively broad spectrum pesticide. […] The effect of concentration of the pesticide is shown in […] where a doubling in the concentration of carvacrol produces a 3-4 fold increase in deterrence of feeding.

[1] = system: octopamine receptor sites; test: 3H-OA binding to ventral nerve cord / synaptosomal membrane protein; parameters: species or system American cockroach (Periplaneta americana); details: for classification with respect to octopamine receptor sites (OAR): based on the binding data of Tables 1-3; for cpm 3H-OA/500 μg protein: Table 3
Description: Different concentrations of unlabeled octopamine (OA) (20, 30, 40, 50, 60, 100 ng) were tested on the binding activity as a positive control. Test chemicals were dissolved in acetone before the assay. Different concentrations of the test chemicals were added directly to the protein preparation from ventral nerve cord. The same amount of solvent (1 μl 0.1%) were added to the control samples. All assays with test chemicals were run in the presence and absence of 50 ng OA. All chemicals were added to the protein extract 20 min prior the addition of radio labeled ^3H-OA(100,000 cpm/sample). After 30 min at 24° C. of the addition of ^3H-OA, the reaction was stopped by the addition of ice-cold Tris buffer, and the samples were filtered through GF/C membrane using water vacuum. After two washes each with 5 ml Tris buffer, the membrane was removed, air dried and the radioactivity was counted in 4 ml liquid scintillation solution. The specific binding was calculated as the difference between the values in the presence and absence of unlabeled OA. All data are calculated as the mean±standard deviation of 5 assays.
Additional tests were conducted on radio labeled octopamine using other purified naturally occurring materials as given in Tables 2 and 3.

[2] = system: 2nd instar green peach aphid nymphs; test: Cabbage leaf disc bioassay; type: in vivo
Description: A bioassay similar to that for S. litura larvae was used for additional larvae. Cabbage leaf discs were dipped in emulsified aqueous solutions, diluted 1:200 in water, on which 2nd instar green peach aphid nymphs were placed. For each treatment there was 10 aphids per disc with 5 replicates; each experiment was replicated in time (successive days) from 3-5 times. After 24 hours, aphids were reported as being (1) on the leaf disc and feeding; (2) alive, but walking off the disc; or (3) dead. In the field, aphids which cease feeding and abandon a host plant are very unlikely to survive.

[3] = system: 3rd instar Asian armyworms (Spodoptera litura); details: for Mortality (%): control 0
Description: Additional synergistic testing was conducted on 3rd instar Asian armyworms (Spodoptera litura). […] The number of replicates is given as “n”.

[4] = 500 ng/ml, solvent control 1385 ± 101

## Cc1ccc(C(C)C)cc1O [Carvacol, Carvacrol]
American cockroach; Periplaneta americana, 24 h
  mortality at 10 mg: 0%
  mortality at 20 mg: 20%
  mortality at 40 mg: 50%
  mortality at 50 mg: 80%
  mortality at 100 mg: 100%
American cockroach
  pesticidal activity against cockroaches, in words: high pesticidal activity
larvae
  increase in deterrence of feeding: 3-4 fold
[1]; 1000 ng/ml
  agonist/antagonist note to 3H-OA binding: agonist
[1]; 1000 ng/ml, Table 2, solvent control 930 ± 89
  dpm 3H-OA/500 μg protein: 2366 ± 149 dpm 3H-OA/500 μg protein
[1]
  classification with respect to octopamine receptor sites (OAR): OAR Agonists

## CCC(=O)OCCc1ccccc1 [Phenethyl propionate]
American cockroach; Periplaneta americana, 24 h
  mortality at 10 mg: 30%
  mortality at 20 mg: 40%
  mortality at 30 mg: 60%
  mortality at 40 mg: 90%
  mortality at 50 mg: 100%
  mortality at 100 mg: 100%
American cockroach
  pesticidal activity against cockroaches, in words: high pesticidal activity
[2]; 1:200 dilution
  activity on green peach aphid nymphs, in words: essentially inactive
[2]; n = 250, Table 17, control 8.7
  Percentage of aphids Dead: 13.3%
[2]; n = 250, Table 17, control 15.3
  Percentage of aphids Walking (off disc): 25.3%
[2]; n = 250, Table 17, control 76.0
  Percentage of aphids Feeding: 62.0%
[1]
  activity/binding at octopamine receptor sites, in words: antagonists which are most strongly bound
  classification with respect to octopamine receptor sites (OAR): extremely high OAR antagonists
[1]; 500 ng/ml
  agonist/antagonist note to 3H-OA binding: antagonist
[1]; [4]
  cpm 3H-OA/500 μg protein: 0173 ± 022 cpm 3H-OA/500 μg protein
[3]; in vivo
  activity on Asian armyworms, in words: relatively low activity

## Cc1ccc(C(C)C)c(O)c1 [Thymol]
American cockroach; Periplaneta americana, 24 h
  mortality at 40 mg: 80%
  mortality at 100 mg: 100%
[1]; [4]
  cpm 3H-OA/500 μg protein: 1310 ± 91 cpm 3H-OA/500 μg protein
[1]; 1000 ng/ml, solvent control 1915 ± 110
  cpm 3H-OA/500 μg protein: 806 ± 71 cpm 3H-OA/500 μg protein
[1]
  classification with respect to octopamine receptor sites (OAR): Non-OAR Specific Toxicants
[3]; diluted 1:400 with water, n = 50, Table 12
  Mortality (%): 98%
[3]; dilution rate 1:500, n = 150, Table 14 right
  Mortality (%): 24.5%
[3]; n = 50, Table 13 right, 1:500 printed for Thymol only
  Mortality (%): 29%
